Source: ChEMBL document CHEMBL1141752, “Koniamborine, the first pyrano[3,2-b]indole alkaloid and other secondary metabolites from Boronella koniambiensis” (J Nat Prod, 2005)

System: L1210
Experiment: Cytotoxicity against mouse L1210 cells
Format: functional, cell-based

CC(C)=CCC/C(C)=C/COc1ccc2ccc(=O)oc2c1CC=C(C)C
IC50: 15.7 µM

c1cc2c(cc1CC1COCC1Cc1ccc3c(c1)OCO3)OCO2 (stereo not drawn)
IC50: 72.1 µM

COc1ccc2c3occc(=O)c3n(C)c2c1 [KONIAMBORINE]
IC50: 38.2 µM
